{"source": "paper PMC10673995", "about": "“Discovery of a novel cardiac-specific myosin modulator using artificial intelligence-based virtual screening” (Nature Communications, 2023)", "key": {"[1]": {"biological_target": "bovine β-cardiac myosin S1 / myosin S2 tail domain (Bos taurus, UniProt Q9BE39)", "sequence (Q9BE39 85-778 limits assumed)": "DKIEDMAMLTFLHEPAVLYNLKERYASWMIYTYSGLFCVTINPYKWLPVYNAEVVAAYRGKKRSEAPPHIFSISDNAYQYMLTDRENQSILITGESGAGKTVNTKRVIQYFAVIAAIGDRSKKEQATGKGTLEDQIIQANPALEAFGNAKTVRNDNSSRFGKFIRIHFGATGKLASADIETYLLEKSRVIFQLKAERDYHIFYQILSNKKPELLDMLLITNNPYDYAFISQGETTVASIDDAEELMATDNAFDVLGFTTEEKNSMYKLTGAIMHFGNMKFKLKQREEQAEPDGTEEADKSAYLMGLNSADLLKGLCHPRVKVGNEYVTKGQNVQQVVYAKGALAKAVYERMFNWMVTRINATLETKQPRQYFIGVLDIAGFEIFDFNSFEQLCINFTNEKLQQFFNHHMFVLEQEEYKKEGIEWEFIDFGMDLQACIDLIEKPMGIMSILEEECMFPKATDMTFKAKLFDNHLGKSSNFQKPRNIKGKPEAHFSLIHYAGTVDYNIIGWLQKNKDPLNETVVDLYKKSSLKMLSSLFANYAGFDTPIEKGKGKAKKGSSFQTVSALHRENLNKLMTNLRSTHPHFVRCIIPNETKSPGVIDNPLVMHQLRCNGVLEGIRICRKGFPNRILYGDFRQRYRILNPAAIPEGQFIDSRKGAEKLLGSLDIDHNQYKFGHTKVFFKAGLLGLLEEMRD", "sequence (P85100 whole entry partner, the tested form may be a part)": "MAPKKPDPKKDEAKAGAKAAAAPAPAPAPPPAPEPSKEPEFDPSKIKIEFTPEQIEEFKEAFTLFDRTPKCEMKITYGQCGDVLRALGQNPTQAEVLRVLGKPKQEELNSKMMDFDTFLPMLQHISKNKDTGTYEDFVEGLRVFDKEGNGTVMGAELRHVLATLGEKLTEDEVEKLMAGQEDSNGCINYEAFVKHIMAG", "description": "In a subset of trabeculae, we replaced the endogenous myosin regulatory light chain (RLC) with a recombinant cardiac RLC crosslinked to a bifunctional sulforhodamine (BSR) along its E-helix (BSR-cRLC-E)[39],[40]. This allowed us to determine the orientation of the RLC-region of myosin in demembranated trabeculae using polarized fluorescence (Fig. 4b; Supplementary Table 2).\nMicroscale thermophoresis (MST) experiments were performed as described previously. Briefly, MST experiments were performed on a Monolith NT.115 instrument (NanoTemper) in interaction buffer containing 20 mmol L^−1 Mops, pH 7, 1 mmol L^−1 MgCl2, 50 mmol L^−1 KCl, 1 mmol L^−1 DTT, and 0.05% (v/v) Tween-20. […] All proteins were either gel-filtered into and/or extensively dialyzed against interaction buffer. Titration experiments were performed with a fixed concentration of 100 nmol L^−1 of Alexa647-labeled proteins in premium capillaries."}, "[2]": {"system": "demembranated rat ventricular trabeculae", "experiment": "Mechanics of demembranated ventricular trabeculae (force, pCa50, ktr)", "design": "Isometric force, individual trabeculae / force re-development, Representative Traces: unit not given here", "settings": "for Normalized force, Force-pCa Titration / force re-development, Representative Traces: 20 μM F10; for Normalized Force (Tension): pCa 5.9", "description": "Wistar rats (Rattus norvegicus, male, 200–250 g, 7 weeks old) were killed by cervical dislocation without the use of anesthetics (Schedule 1 procedure in accordance with UK Animal Scientific Procedure Act, 1986) and demembranated right ventricular trabeculae were prepared as described previously.\nBSR-cRLCs were exchanged into demembranated trabeculae by extraction in CDTA-rigor solution (composition in mmol L^−1: 5 CDTA, 50 KCl, 40 Tris-HCl pH 8.4, 0.1% (v/v) Triton X-100) for 30 min followed by reconstitution with 40 μmol L^−1 BSR-cRLC in relaxing solution (composition in mmol L^−1: 25 Imidazole, 15 Na2Creatine phosphate (Na2CrP), 78.4 KPropionate (KPr), 5.65 Na2ATP, 6.8 MgCl2, 10 K2EGTA, 1 DTT, pH 7.1) for 1 h, replacing ~50% of the endogenous cRLC[40],[64].\nThe sarcomere length of trabeculae was adjusted to 2.1 μm by laser diffraction in relaxing solution prior to each activation. […] Each activation was preceded by a 2-min incubation in pre-activating solution (composition in mmol L^−1: 25 Imidazole, 15 Na2CrP, 108.2 KPr, 5.65 Na2ATP, 6.3 MgCl2, 0.2 K2EGTA, 1 DTT, pH 7.1). Solutions with varying concentrations of free [Ca^2+] were prepared by mixing relaxing and activating solutions using MAXCHELATOR software (maxchelator.stanford.edu). Isometric force and steady-state fluorescence polarization values were measured once steady force had been established. The dependence of force and order parameters on free calcium concentration was fitted to data from individual trabeculae using non-linear least-squares regression to the modified Hill Eq. (1):1 F=Y0+A⋅([Ca^2+]^nH)/(−log10[pCa50]^nH+[Ca^2+]^nH) where pCa50 is the negative logarithm of [Ca^2+] corresponding to half-maximal change in F, nH is the Hill coefficient, Y0 is the baseline, and A is the amplitude (for normalized force data: Y0 = 0 and A = 1)."}}, "note": "“And” between values parts separate entries of the source, which are not always exact repeats. Equal entries are not always repeated. Where two headings read alike, the source gives them in different places."}
{"smiles": "CCc1cc2c(=O)n(NC(=S)NC(C)C)cnc2s1", "note": "[F10]", "values": [{"measurement": "Normalized MST binding S1-S2", "setting": "[1]; 1 mmol L-1 ADP.AlF4, S2D 0.0488", "value": 0.03566}, {"measurement": "Normalized MST binding S1-S2", "setting": "[1]; 1 mmol L-1 ADP.AlF4, S2D 0.0977", "value": 0.0163}, {"measurement": "Normalized MST binding S1-S2", "setting": "[1]; 1 mmol L-1 ADP.AlF4, S2D 0.3906", "value": 0.009201}, {"measurement": "Normalized MST binding S1-S2", "setting": "[1]; 1 mmol L-1 ADP.AlF4, S2D 0.7813", "value": 0.03149}, {"measurement": "Normalized MST binding S1-S2", "setting": "[1]; 1 mmol L-1 ADP.AlF4, S2D 1.5625", "value": 0.0885}, {"measurement": "Normalized MST binding S1-S2", "setting": "[1]; 1 mmol L-1 ADP.AlF4, S2D 3.125", "value": 0.1616}, {"measurement": "Normalized MST binding S1-S2", "setting": "[1]; 1 mmol L-1 ADP.AlF4, S2D 6.25", "value": 0.3206}, {"measurement": "Normalized MST binding S1-S2", "setting": "[1]; 1 mmol L-1 ADP.AlF4, S2D 12.5", "value": 0.4612}, {"measurement": "Normalized MST binding S1-S2", "setting": "[1]; 1 mmol L-1 ADP.AlF4, S2D 25", "value": 0.6248}, {"measurement": "Normalized MST binding S1-S2", "setting": "[1]; 1 mmol L-1 ADP.AlF4, S2D 50", "value": 0.7947}, {"measurement": "Normalized MST binding S1-S2", "setting": "[1]; 1 mmol L-1 ADP.AlF4, S2D 100", "value": 0.8606}, {"measurement": "Normalized MST binding S1-S2", "setting": "[1]; 1 mmol L-1 ADP, S2D 0.0488", "value": 0.01363}, {"measurement": "Normalized MST binding S1-S2", "setting": "[1]; 1 mmol L-1 ADP, S2D 0.0977", "value": 0.01186}, {"measurement": "Normalized MST binding S1-S2", "setting": "[1]; 1 mmol L-1 ADP, S2D 0.1953", "value": 0.01368}, {"measurement": "Normalized MST binding S1-S2", "setting": "[1]; 1 mmol L-1 ADP, S2D 0.3906", "value": 0.0116}, {"measurement": "Normalized MST binding S1-S2", "setting": "[1]; 1 mmol L-1 ADP, S2D 0.7813", "value": 0.04036}, {"measurement": "Normalized MST binding S1-S2", "setting": "[1]; 1 mmol L-1 ADP, S2D 1.5625", "value": 0.07905}, {"measurement": "Normalized MST binding S1-S2", "setting": "[1]; 1 mmol L-1 ADP, S2D 3.125", "value": 0.1319}, {"measurement": "Normalized MST binding S1-S2", "setting": "[1]; 1 mmol L-1 ADP, S2D 6.25", "value": 0.2708}, {"measurement": "Normalized MST binding S1-S2", "setting": "[1]; 1 mmol L-1 ADP, S2D 12.5", "value": 0.4119}, {"measurement": "Normalized MST binding S1-S2", "setting": "[1]; 1 mmol L-1 ADP, S2D 25", "value": 0.5835}, {"measurement": "Normalized MST binding S1-S2", "setting": "[1]; 1 mmol L-1 ADP, S2D 50", "value": 0.7506}, {"measurement": "Normalized MST binding S1-S2", "setting": "[1]; 1 mmol L-1 ADP, S2D 100", "value": 0.8408}, {"measurement": "Normalized MST binding S1-S2", "setting": "[1]; 1 mmol L-1 ATP, S2D 0.0488", "value": 0.07487}, {"measurement": "Normalized MST binding S1-S2", "setting": "[1]; 1 mmol L-1 ATP, S2D 0.0977", "value": 0.0005344}, {"measurement": "Normalized MST binding S1-S2", "setting": "[1]; 1 mmol L-1 ATP, S2D 0.1953", "value": -0.01266}, {"measurement": "Normalized MST binding S1-S2", "setting": "[1]; 1 mmol L-1 ATP, S2D 0.3906", "value": 0.02682}, {"measurement": "Normalized MST binding S1-S2", "setting": "[1]; 1 mmol L-1 ATP, S2D 0.7813", "value": 0.008303}, {"measurement": "Normalized MST binding S1-S2", "setting": "[1]; 1 mmol L-1 ATP, S2D 1.5625", "value": 0.06777}, {"measurement": "Normalized MST binding S1-S2", "setting": "[1]; 1 mmol L-1 ATP, S2D 3.125", "value": 0.1347}, {"measurement": "Normalized MST binding S1-S2", "setting": "[1]; 1 mmol L-1 ATP, S2D 6.25", "value": 0.2613}, {"measurement": "Normalized MST binding S1-S2", "setting": "[1]; 1 mmol L-1 ATP, S2D 12.5", "value": 0.4278}, {"measurement": "Normalized MST binding S1-S2", "setting": "[1]; 1 mmol L-1 ATP, S2D 25", "value": 0.5839}, {"measurement": "Normalized MST binding S1-S2", "setting": "[1]; 1 mmol L-1 ATP, S2D 50", "value": 0.7582}, {"measurement": "Normalized MST binding S1-S2", "setting": "[1]; 1 mmol L-1 ATP, S2D 100", "value": 0.8343}, {"measurement": "Normalized force, Force-pCa Titration", "setting": "[2]; pCa 4.5", "value": 1.00}, {"measurement": "Normalized force, Force-pCa Titration", "setting": "[2]; pCa 5.5", "value": "0.88 and 0.85 and 0.81"}, {"measurement": "Normalized force, Force-pCa Titration", "setting": "[2]; pCa 5.6", "value": "0.73 and 0.76 and 0.72"}, {"measurement": "Normalized force, Force-pCa Titration", "setting": "[2]; pCa 5.7", "value": "0.48 and 0.55 and 0.53"}, {"measurement": "Normalized force, Force-pCa Titration", "setting": "[2]; pCa 5.8", "value": "0.13 and 0.14 and 0.18"}, {"measurement": "force re-development, Representative Traces", "setting": "[2]; t 0.0001 s", "value": 0.9946}, {"measurement": "force re-development, Representative Traces", "setting": "[2]; t 0.0002 s", "value": 0.9927}, {"measurement": "force re-development, Representative Traces", "setting": "[2]; t 0.0003 s", "value": 0.9927}, {"measurement": "force re-development, Representative Traces", "setting": "[2]; t 0.0004 s", "value": 0.9927}, {"measurement": "IC50", "setting": "[2]; Rattus norvegicus, pCa 5.9, about 50% maximal activation, read-out: IC50 active isometric force", "value": 9, "unit": "µM"}, {"measurement": "pCa50 of force development", "setting": "[2]; in the presence of F10 (20 μM), control 5.88 ± 0.02", "value": "5.69 ± 0.01 and 5.68 and 5.693 and 5.684"}, {"measurement": "Tmin", "setting": "[2]; individual replicates", "value": "2.9 and 4.1 and 1.3 and 4.3 and 4.9"}, {"measurement": "ktr", "setting": "[2]; individual replicates", "value": "35.4 and 37.1 and 32.7"}, {"measurement": "nH", "setting": "[2]; individual replicates", "value": "5.8 and 6.0 and 4.9"}, {"measurement": "pCa50", "setting": "[2]; individual replicates", "value": "5.68 (2×) and 5.69"}, {"measurement": "Isometric force, individual trabeculae", "setting": "[2]; pCa 4.5, 20 μmol L^−1 F10", "value": "16.0321 and 19.6135 and 8.993 and 17.2526 and 16.2235"}, {"measurement": "decrease of maximal active isometric tension", "setting": "[2]; pCa 4.5, 20 μmol L^−1 F10", "value": "more than 75%"}, {"measurement": "Normalized Force (Tension)", "setting": "[2]; F10 5 micromolar", "value": 80.6034, "unit": "% control"}, {"measurement": "Normalized Force (Tension)", "setting": "[2]; F10 10 micromolar", "value": 50.8621, "unit": "% control"}, {"measurement": "Normalized Force (Tension)", "setting": "[2]; F10 20 micromolar", "value": 27.5862, "unit": "% control"}, {"measurement": "Normalized Force (Tension)", "setting": "[2]; F10 40 micromolar", "value": 17.2414, "unit": "% control"}, {"measurement": "Isometric force, individual trabeculae", "setting": "[2]; pCa 9, 20 μmol L^−1 F10", "value": "2.857 and 4.07 and 1.256 and 4.268 and 4.903"}, {"measurement": "effect on passive tension", "setting": "[2]; pCa 9, 20 μmol L^−1 F10", "value": "no effect"}, {"measurement": "Tmin (passive tension)", "setting": "[2]; pCa 9, 20 μmol L^−1 F10, control 3.4 ± 0.5", "value": "3.5 ± 0.6", "unit": "mN mm-2"}, {"measurement": "rate of force re-development ktr, individual trabeculae (Bar Graph)", "setting": "[2]; slack-re-stretch protocol, F10, in s-1 (unit assumed)", "value": "35.4 and 37.11 and 32.67"}, {"measurement": "rate of force re-development ktr", "setting": "[2]; slack-re-stretch protocol, in the presence of F10, control 12.0 ± 1.9", "value": "35.1 ± 1.3 s⁻¹ and 35 ± 1 s⁻¹"}]}
